Test results: PubChem BioAssay AID330 (DTP/NCI, 2004)
Inconclusive results and toxic doses are left out. How the source made its calls: active means survival T/C of 150% or more; inactive means T/C below 125% in these data.

System: P388 leukemia ip, CD2F1 mice, survival T/C
Assay: NCI In Vivo Anticancer Drug Screen. Data for tumor model P388 Leukemia (intraperitoneal) in CD2F1 (CDF1) mice
Conditions: endpoint: median survival time, higher = longer survival
Method in brief: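 Mice carrying the transplanted tumor received test compound or vehicle. Survival was recorded in each group, and the value is the treated-group measurement divided by that of the vehicle-treated control group.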

[1] = dose: 50.0 mg/kg/injection, schedule: Q01DX009 (ip), vehicle: saline with Tween-80
[2] = dose: 100.0 mg/kg/injection, schedule: Q01DX009 (ip), vehicle: saline with Tween-80
[3] = dose: 200.0 mg/kg/injection, schedule: Q01DX009 (ip), vehicle: saline with Tween-80
[4] = dose: 60.0 mg/kg/injection, schedule: Q01DX005 (ip), vehicle: saline with Tween-80
[5] = dose: 120.0 mg/kg/injection, schedule: Q01DX005 (ip), vehicle: saline with Tween-80
[6] = dose: 240.0 mg/kg/injection, schedule: Q01DX005 (ip), vehicle: saline with Tween-80
[7] = dose: 50.0 mg/kg/injection, schedule: Q01DX005 (ip), vehicle: Klucel (hydroxypropylcellulose) (HPC)
[8] = dose: 100.0 mg/kg/injection, schedule: Q01DX005 (ip), vehicle: Klucel (hydroxypropylcellulose) (HPC)
[9] = dose: 200.0 mg/kg/injection, schedule: Q01DX005 (ip), vehicle: Klucel (hydroxypropylcellulose) (HPC)
[10] = dose: 30.0 mg/kg/injection, schedule: Q01DX005 (ip), vehicle: Klucel (hydroxypropylcellulose) (HPC)
[11] = dose: 60.0 mg/kg/injection, schedule: Q01DX005 (ip), vehicle: Klucel (hydroxypropylcellulose) (HPC)
[12] = dose: 120.0 mg/kg/injection, schedule: Q01DX005 (ip), vehicle: Klucel (hydroxypropylcellulose) (HPC)
[13] = dose: 240.0 mg/kg/injection, schedule: Q01DX005 (ip), vehicle: Klucel (hydroxypropylcellulose) (HPC)

Measured: T/C

O=C1/C(=C/c2ccccc2[N+](=O)[O-])Cc2ccccc21
inactive: [1] 103 % of control | [2] 94 % of control | [3] 103 % of control | dose: 400.0 mg/kg/injection, schedule: Q01DX009 (ip), vehicle: saline with Tween-80 97 % of control

COc1ccc(NC(Cc2ccccc2)=NC(C)(C)C)cc1
inactive: [1] 98 % of control | [2] 89 % of control | [3] 94 % of control

CC(=O)OC1CCC2(C)C(=CCC3C2CCC2(C)C3CC3C(c4ccccc4)=NC(c4ccccc4)C32C(C)=O)C1 (centres undefined)
inactive: dose: 100.0 mg/kg/injection, schedule: Q01DX001 (ip), vehicle: saline with Tween-80 93 % of control | dose: 100.0 mg/kg/injection, schedule: Q04DX002 (ip), vehicle: saline with Tween-80 108 % of control | dose: 200.0 mg/kg/injection, schedule: Q01DX001 (ip), vehicle: saline with Tween-80 91 % of control | dose: 200.0 mg/kg/injection, schedule: Q04DX002 (ip), vehicle: saline with Tween-80 100 % of control | dose: 400.0 mg/kg/injection, schedule: Q01DX001 (ip), vehicle: saline with Tween-80 90 % of control | dose: 400.0 mg/kg/injection, schedule: Q04DX002 (ip), vehicle: saline with Tween-80 105 % of control

O=C1OCc2cnccc21
inactive: dose: 8.75 mg/kg/injection, schedule: Q01DX005 (ip), vehicle: Klucel (hydroxypropylcellulose) (HPC) 98 % of control | dose: 17.5 mg/kg/injection, schedule: Q01DX005 (ip), vehicle: Klucel (hydroxypropylcellulose) (HPC) 100 % of control | dose: 35.0 mg/kg/injection, schedule: Q01DX005 (ip), vehicle: Klucel (hydroxypropylcellulose) (HPC) 97 % of control

CC1=NS(=O)(=O)NC(C)=C1CC1=C(C)NS(=O)(=O)N=C1C
inactive: [4] 99 % of control | [5] 107 % of control | [6] 106 % of control

COC(=O)c1ccc(SCCC(=O)CN2C(=O)c3ccccc3C2=O)cc1
inactive: dose: 50.0 mg/kg/injection, schedule: Q01DX009 (ip), vehicle: Klucel (hydroxypropylcellulose) (HPC) 94 % of control | dose: 100.0 mg/kg/injection, schedule: Q01DX009 (ip), vehicle: Klucel (hydroxypropylcellulose) (HPC) 93 % of control | dose: 200.0 mg/kg/injection, schedule: Q01DX009 (ip), vehicle: Klucel (hydroxypropylcellulose) (HPC) 86 % of control

C/C(=C\c1ccc([N+](=O)[O-])cc1)C(=O)N1CCCCC1
inactive: [7] 105 % of control | [8] 96 % of control | [9] 96 % of control

CC1=NS(C)(=O)=c2ccccc2=N1 (centres undefined)
inactive: dose: 100.0 mg/kg/injection, schedule: Q04DX003 (ip), vehicle: saline with Tween-80 105 % of control | dose: 200.0 mg/kg/injection, schedule: Q04DX003 (ip), vehicle: saline with Tween-80 105 % of control | dose: 400.0 mg/kg/injection, schedule: Q04DX003 (ip), vehicle: saline with Tween-80 106 % of control

CC1=C(C(=O)Nc2cc(O)ccc2O)C(c2cccc([N+](=O)[O-])c2)C(C(=O)Nc2cc(O)ccc2O)=C(C)N1
inactive: dose: 7.5 mg/kg/injection, schedule: Q01DX005 (ip), vehicle: Klucel (hydroxypropylcellulose) (HPC) 98 % of control | dose: 15.0 mg/kg/injection, schedule: Q01DX005 (ip), vehicle: Klucel (hydroxypropylcellulose) (HPC) 93 % of control | [10] 100 % of control

Cc1cc(NS(=O)(=O)c2ccc(NC(=O)NCCCl)cc2)no1
inactive: [10] 99 % of control | [11] 98 % of control | [12] 100 % of control | [13] 100 % of control

CCOC(=O)c1cnc(=O)[nH]c1C(=O)OCC
inactive: [7] 91 % of control | [8] 100 % of control | [9] 99 % of control

COC(=O)/C=C(\CCl)N=[N+]=[N-]
inactive: [4] 108 % of control | [5] 109 % of control | [6] 107 % of control

CCOC1[N-]CC(C)C(OCC)N1.CCOC1[N-]CC(C)C(OCC)N1.[Cl][Pd][Cl] (centres undefined)
inactive: [11] 102 % of control | [12] 106 % of control | [13] 107 % of control
